Test [1] deals with T1, VPAC1 (Homo sapiens, UniProt P32241).
T1 construct: gene VIPR1
T1 sequence (P32241 31-457): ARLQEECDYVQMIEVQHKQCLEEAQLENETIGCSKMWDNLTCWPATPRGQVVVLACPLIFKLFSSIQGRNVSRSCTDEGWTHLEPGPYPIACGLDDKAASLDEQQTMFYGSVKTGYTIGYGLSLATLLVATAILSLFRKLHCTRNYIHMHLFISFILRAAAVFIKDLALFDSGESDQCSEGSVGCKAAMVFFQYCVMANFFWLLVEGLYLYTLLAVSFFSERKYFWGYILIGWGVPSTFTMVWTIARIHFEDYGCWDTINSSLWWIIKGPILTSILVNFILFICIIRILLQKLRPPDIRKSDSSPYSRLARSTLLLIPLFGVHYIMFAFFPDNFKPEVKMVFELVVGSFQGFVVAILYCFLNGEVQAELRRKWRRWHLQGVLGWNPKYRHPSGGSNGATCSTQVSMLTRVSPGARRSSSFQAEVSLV
The test can be described thus: FAM-VIP competition binding by FACS ([…] VIP binding left at […]) and aequorin calcium mobilization in CHO cells expressing VPAC1; IC50 extrapolated from the partial calcium inhibition. Format: cell-based.

For test [2], the target named is T2, VPAC2 (Homo sapiens, UniProt P41587).
T2 construct: gene VIPR2
T2 sequence (P41587 24-438): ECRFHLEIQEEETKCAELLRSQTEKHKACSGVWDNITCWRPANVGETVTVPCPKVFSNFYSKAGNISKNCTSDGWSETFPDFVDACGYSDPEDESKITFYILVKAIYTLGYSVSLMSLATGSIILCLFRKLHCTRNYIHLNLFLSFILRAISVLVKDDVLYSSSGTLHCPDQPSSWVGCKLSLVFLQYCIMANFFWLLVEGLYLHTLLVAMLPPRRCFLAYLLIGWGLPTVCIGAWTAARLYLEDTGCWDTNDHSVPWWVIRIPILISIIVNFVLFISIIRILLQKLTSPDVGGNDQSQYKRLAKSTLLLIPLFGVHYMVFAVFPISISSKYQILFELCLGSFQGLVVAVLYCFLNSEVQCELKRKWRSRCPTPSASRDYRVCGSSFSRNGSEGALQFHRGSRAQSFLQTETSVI
The test can be described thus: FAM-VIP competition binding by FACS ([…] VIP binding left at […]) and aequorin calcium mobilization in CHO cells expressing VPAC2; IC50 extrapolated from the partial calcium inhibition. Format: cell-based.

The source of these data is PMC8637020, “Drug Repositioning For Allosteric Modulation of VIP and PACAP Receptors” (Frontiers in Endocrinology, 2021).

With `CCCSc1nc(N[C@@H]2C[C@H]2c2ccc(F)c(F)c2)c2nnn([C@@H]3C[C@H](OCCO)[C@@H](O)[C@H]3O)c2n1` [ticagrelor], the IC50 was about 50 µM in test [1] and about 20 µM in test [2].
